Assay results reported in publication PMC11456426, “Study of transport, tissue distribution, depletion, and hepatotoxicity of Cyadox, a quinoxaline-1,4-dioxide derivative” (Frontiers in Pharmacology, 2024).

How the values were obtained:
[1] = Tissue distribution and depletion after oral [3H]-CYA for seven consecutive days; assay type: in vivo, Wistar rats; conditions: rats; for Tissue distribution and depletion of CYA (means ± SD) / t1/2 (elimination half-life): oral 10 mg/kg·bw x 7 days; for Tissue distribution and depletion of CYA (means ± SD): n = 4
Procedure: For the tissue distribution study, 24 rats were divided into six groups, one group as a blank control and five groups as five time point groups. Each time point group consisted of 4 rats (2 male and 2 female) administered [^3H]-CYA orally by gavage at 10 mg/kg bw (corresponded to a feed inclusion of approximately 100 mg/kg dose) for seven consecutive days, respectively. Dosing suspensions of [^3H]-CYA (2.08 Ci/mmol) were prepared in 0.5% aqueous carboxymethyl cellulose (CMC) at 4 mg/mL after being diluted with non-radiolabeled CYA to a specific activity of 9,044 dpm/µg. Another group of 4 rats (2 male and 2 female) was fed separately from the radioactive administration group for the blank control under the same conditions, sacrificed at 0 day. One group of 2 male and 2 female rats was randomly selected to be slaughtered at each time point (0.25, 1, 3, 7, and 14 days) after withdrawal. The rats were dissected, and blood, muscle, heart, liver, lung, spleen, kidney, skin, stomach, large intestine, small intestine, brain, cecum, testicle (or ovary), bladder, and bone (thigh bone) were collected separately and stored at −20°C until analysis. The weight of each tissue was recorded. Gastrointestinal tracts were stripped of their contents.
(§1) For radioactivity detection, the samples were combusted by PerkinElmer Oxidizer 307 (PerkinElmer Life and Analytical Sciences). ^3H2O was collected into 20 mL of scintillant (PerkinElmer Life and Analytical Sciences) with 10 mL of Monophase S, and sample radioassays were quantitated by PerkinElmer® TriCarb® 2900 (PerkinElmer Life and Analytical Sciences) with low-level quench-correction. Counting efficiency was above 65%.
(§2) Tissue samples for each sampling time from all animals were homogenized, aliquots of blood and urine were mixed thoroughly, and feces were homogenized in methanol/water (50:50; V/V). Samples of the blood (500 μL), urine (500 μL) feces (500 mg), bone, and all tissues (100–500 mg) were combusted in PerkinElmer Oxidizer 307 after being transferred into tared cones and pads (PerkinElmer Life and Analytical Sciences) and added an aliquot of Combustaid (200 μL; PerkinElmer Life and Analytical Sciences). Radioactivity in the combustion products was determined by collecting ^3H2O into distilled water followed by liquid scintillation counting. Combustion efficiency was determined daily, prior to the combustion of study samples, by using a diluted dose formulation or ^3H standard. The measured radioactivity content in the combusted samples was adjusted using the combustion efficiency values. Samples were analyzed for radioactivity for 5 min. Total residue concentrations were calculated from the specific activity and radioactivity per mass or volume and expressed as molar equivalents of CYA.

[2] = Excretion study, recovery of total radioactivity after single oral [3H]-CYA; assay type: in vivo, Wistar rats
Procedure: For the excretion study, a group of six rats (3 male and 3 female) were housed individually in metabolism cages, which allowed separate collection of urine and feces, and then administered with a single dose of 10 mg/kg bw (corresponded to a feed inclusion of approximately 100 mg/kg dose) [^3H]-CYA by oral gavage. Dosing suspensions of [^3H]-CYA were prepared in 0.5% aqueous CMC at 2 mg/mL after [^3H]-CYA (2.08 Ci/mmol) was diluted with non-radiolabeled CYA to a specific activity of 4.52 × 10^4 dpm/µg. Urine and feces were collected from intact animals for 7 days at 0–12, 12–24, 24–48, 48–72, 72–96, 96–120, 120–144, and 144–168 h after the dose, and the total weight of the urine and feces was recorded after each collection. At the end of the study, the animals are anesthetized, and once it's confirmed that they have lost consciousness, they are euthanized by exsanguination. The samples were stored at −20°C until analysis. Contents of gastrointestinal tracts were pooled with feces of 144–168 h time point. Each metabolism cage was thoroughly rinsed with a mixture of methanol/water (1:1; V/V), and the rinse solvent was collected and weighed. Each cage rinse was stirred thoroughly, […] of subsamples were removed, and radioactivities were analyzed immediately. One animal per gender was administered with non-radiolabeled CYA at the same dose, and animals were sacrificed at 6 h post-dose. Urine, feces, and tissues were collected for the blank controls.
as §1, §2

[3] = rats, single oral 10 mg/kg bw, 7 days

Tissue distribution and depletion of CYA (means ± SD) ([1]; Bladder, 6 h after withdrawal): 988.63 ± 197.38 µg/kg
Tissue distribution and depletion of CYA (means ± SD) ([1]; Blood, 6 h after withdrawal): 1552.98 ± 133.22 µg/kg
Tissue distribution and depletion of CYA (means ± SD) ([1]; Blood, 1 d after withdrawal): 785.75 ± 56.13 µg/kg
Tissue distribution and depletion of CYA (means ± SD) ([1]; Blood, 3 d after withdrawal): 748.87 ± 25.70 µg/kg
Tissue distribution and depletion of CYA (means ± SD) ([1]; Blood, 7 d after withdrawal): 69.89 ± 36.12 µg/kg
t1/2 (elimination half-life) ([1]; Blood): 38.50 h
Tissue distribution and depletion of CYA (means ± SD) ([1]; Bone, 6 h after withdrawal): 494.69 ± 58.79 µg/kg
Tissue distribution and depletion of CYA (means ± SD) ([1]; Bone, 1 d after withdrawal): 280.43 ± 56.15 µg/kg
Tissue distribution and depletion of CYA (means ± SD) ([1]; Brain, 6 h after withdrawal): 627.02 ± 60.33 µg/kg
Tissue distribution and depletion of CYA (means ± SD) ([1]; Brain, 1 d after withdrawal): 450.64 ± 41.38 µg/kg
Tissue distribution and depletion of CYA (means ± SD) ([1]; Caecum, 6 h after withdrawal): 15540.9 ± 2038.67 µg/kg
Tissue distribution and depletion of CYA (means ± SD) ([1]; Caecum, 1 d after withdrawal): 563.84 ± 65.58 µg/kg
Tissue distribution and depletion of CYA (means ± SD) ([1]; Caecum, 3 d after withdrawal): 20.75 ± 11.12 µg/kg
t1/2 (elimination half-life) ([1]; Caecum): 7.45 h
Tissue distribution and depletion of CYA (means ± SD) ([1]; Heart, 6 h after withdrawal): 1091.00 ± 197.10 µg/kg
Tissue distribution and depletion of CYA (means ± SD) ([1]; Heart, 1 d after withdrawal): 662.17 ± 101.49 µg/kg
Tissue distribution and depletion of CYA (means ± SD) ([1]; Heart, 3 d after withdrawal): 243.76 ± 46.78 µg/kg
t1/2 (elimination half-life) ([1]; Heart): 31.50 h
Tissue distribution and depletion of CYA (means ± SD) ([1]; Kidney, 6 h after withdrawal): 6245.27 ± 673.61 µg/kg
Tissue distribution and depletion of CYA (means ± SD) ([1]; Kidney, 1 d after withdrawal): 2034.47 ± 346.37 µg/kg
Tissue distribution and depletion of CYA (means ± SD) ([1]; Kidney, 3 d after withdrawal): 1145.28 ± 115.69 µg/kg
Tissue distribution and depletion of CYA (means ± SD) ([1]; Kidney, 7 d after withdrawal): 86.05 ± 41.77 µg/kg
t1/2 (elimination half-life) ([1]; Kidney): 28.88 h
Tissue distribution and depletion of CYA (means ± SD) ([1]; Large Intestine, 6 h after withdrawal): 2322.96 ± 113.41 µg/kg
Tissue distribution and depletion of CYA (means ± SD) ([1]; Large Intestine, 1 d after withdrawal): 558.10 ± 57.02 µg/kg
Tissue distribution and depletion of CYA (means ± SD) ([1]; Large Intestine, 3 d after withdrawal): 129.77 ± 23.80 µg/kg
t1/2 (elimination half-life) ([1]; Large Intestine): 16.90 h
Tissue distribution and depletion of CYA (means ± SD) ([1]; Liver, 6 h after withdrawal): 5049.44 ± 370.61 µg/kg
Tissue distribution and depletion of CYA (means ± SD) ([1]; Liver, 1 d after withdrawal): 2355.04 ± 258.05 µg/kg
Tissue distribution and depletion of CYA (means ± SD) ([1]; Liver, 3 d after withdrawal): 1430.10 ± 175.39 µg/kg
Tissue distribution and depletion of CYA (means ± SD) ([1]; Liver, 7 d after withdrawal): 126.35 ± 42.35 µg/kg
t1/2 (elimination half-life) ([1]; Liver): 33.00 h
Tissue distribution and depletion of CYA (means ± SD) ([1]; Lung, 6 h after withdrawal): 1884.05 ± 294.15 µg/kg
Tissue distribution and depletion of CYA (means ± SD) ([1]; Lung, 1 d after withdrawal): 1681.08 ± 112.14 µg/kg
Tissue distribution and depletion of CYA (means ± SD) ([1]; Lung, 3 d after withdrawal): 797.45 ± 95.81 µg/kg
Tissue distribution and depletion of CYA (means ± SD) ([1]; Lung, 7 d after withdrawal): 49.18 ± 18.52 µg/kg
t1/2 (elimination half-life) ([1]; Lung): 30.13 h
Tissue distribution and depletion of CYA (means ± SD) ([1]; Muscle, 6 h after withdrawal): 969.02 ± 61.06 µg/kg
Tissue distribution and depletion of CYA (means ± SD) ([1]; Muscle, 1 d after withdrawal): 529.82 ± 54.87 µg/kg
Tissue distribution and depletion of CYA (means ± SD) ([1]; Ovary, 6 h after withdrawal): 2884.21 ± 66.88 µg/kg
Tissue distribution and depletion of CYA (means ± SD) ([1]; Ovary, 1 d after withdrawal): 326.55 ± 39.23 µg/kg
Tissue distribution and depletion of CYA (means ± SD) ([1]; Ovary, 3 d after withdrawal): 18.87 ± 6.19 µg/kg
t1/2 (elimination half-life) ([1]; Ovary): 9.63 h
Tissue distribution and depletion of CYA (means ± SD) ([1]; Skin/Fat, 6 h after withdrawal): 1299.60 ± 234.17 µg/kg
Tissue distribution and depletion of CYA (means ± SD) ([1]; Skin/Fat, 1 d after withdrawal): 1035.96 ± 76.42 µg/kg
Tissue distribution and depletion of CYA (means ± SD) ([1]; Skin/Fat, 3 d after withdrawal): 420.24 ± 36.44 µg/kg
Tissue distribution and depletion of CYA (means ± SD) ([1]; Skin/Fat, 7 d after withdrawal): 25.30 ± 22.33 µg/kg
Tissue distribution and depletion of CYA (means ± SD) ([1]; Small Intestine, 6 h after withdrawal): 2867.77 ± 107.20 µg/kg
Tissue distribution and depletion of CYA (means ± SD) ([1]; Small Intestine, 1 d after withdrawal): 463.68 ± 120.91 µg/kg
Tissue distribution and depletion of CYA (means ± SD) ([1]; Small Intestine, 3 d after withdrawal): 57.85 ± 17.62 µg/kg
t1/2 (elimination half-life) ([1]; Small Intestine): 12.60 h
Tissue distribution and depletion of CYA (means ± SD) ([1]; Spleen, 6 h after withdrawal): 1127.80 ± 87.25 µg/kg
Tissue distribution and depletion of CYA (means ± SD) ([1]; Spleen, 1 d after withdrawal): 759.31 ± 47.25 µg/kg
Tissue distribution and depletion of CYA (means ± SD) ([1]; Spleen, 3 d after withdrawal): 271.70 ± 53.23 µg/kg
Tissue distribution and depletion of CYA (means ± SD) ([1]; Spleen, 7 d after withdrawal): 25.21 ± 41.14 µg/kg
t1/2 (elimination half-life) ([1]; Spleen): 30.13 h
Tissue distribution and depletion of CYA (means ± SD) ([1]; Stomach, 6 h after withdrawal): 2290.13 ± 616.19 µg/kg
Tissue distribution and depletion of CYA (means ± SD) ([1]; Stomach, 1 d after withdrawal): 448.66 ± 43.56 µg/kg
Tissue distribution and depletion of CYA (means ± SD) ([1]; Stomach, 3 d after withdrawal): 142.33 ± 9.93 µg/kg
t1/2 (elimination half-life) ([1]; Stomach): 18.24 h
Tissue distribution and depletion of CYA (means ± SD) ([1]; Testicle, 6 h after withdrawal): 1051.96 ± 7.06 µg/kg
Tissue distribution and depletion of CYA (means ± SD) ([1]; Testicle, 1 d after withdrawal): 740.37 ± 77.82 µg/kg
Tissue distribution and depletion of CYA (means ± SD) ([1]; Testicle, 3 d after withdrawal): 331.90 ± 54.29 µg/kg
t1/2 (elimination half-life) ([1]; Testicle): 40.76 h
time of maximum concentrations in all detected organs or tissues ([1]; oral 10 mg/kg bw for seven consecutive days): 6 h
radioactivity excreted, % of total dose ([2]; 0–12 h post-dose): 21.03%
radioactivity excreted, % of total dose ([2]; 12–24 h post-dose): 70.25%
drug-related radioactivity excreted, % of administration amount ([2]; first 24 h after administration): 91.28%
radioactivity excreted in the feces [2, 3]: 60.25%
radioactivity excreted in the urine [2, 3]: 34.81%
radioactivity of the cage rinse [2, 3]: 0.78%
radioactivity remaining in the carcass [2, 3]: 0.38%
Overall recovery of total radioactivity ([2]; rats, single oral 10 mg/kg bw, within 7 days (168 h), n = 6): 96.22%
Compound: [3H]c1ccc2c(c1)[n+]([O-])cc(/C=N/NC(=O)CC#N)[n+]2[O-] [[^3H]-CYA]
